Results taken from patent US20080095764A1, “Use of genetically-and epigenetically-altered protocadherins in methods of diagnosing, prognosing, and treating cancer” (THE TRUSTEES OF COLUMBIA UNIVERSITY IN THE CITY OF NEW YORK, priority 2004, published 2008).
“Also recorded” adds a separate entry of the source.

System: PCDH8 expression in MDA-MB-435s cells
Experiment: 5-aza-deoxycytidine treatment, reactivation of PCDH8 expression (RT-PCR)
Assay type: cell-based, human
Conditions: MDA-MB-435s breast cancer cells with methylated PCDH8 promoter, 1 μM 5-aza-deoxycytidine for 72 hours, vs PBS control
Description: Cells were lysed in solution D, and RNA was separated by CsCl. RNA was resuspended in sodium acetate, and reprecipitated with ethanol. The pellet was dissolved in DEPC-treated water. RNA was primed with random hexamers, and reverse-transcribed with Superscript II reverse transcriptase (Invitrogen).
cDNA was synthesized from RNA primed with random hexamers (Amersham). Primers used for RT-PCR are below: DIAPH3: […] (SEQ ID NO:74, […] (SEQ ID NO:75). PCDH8: TGGCGGTGTGGAAAGGACA (SEQ ID NO:75), […] (SEQ ID NO:76). For reactivation studies, cells were treated with 1 μM 5-aza-deoxycytidine for 72 hours.
Cells were plated to 20% confluence, and treated with fresh 1 micromolar 5-aza-deoxycytidine for 72 h. RNA and cDNA were prepared from the cells and subjected to PCR.

Nc1ncn([C@H]2C[C@H](O)[C@@H](CO)O2)c(=O)n1 [5-aza-deoxycytidine]
PCDH8 expression after treatment: restored; also recorded: reactivated
